Where two headings read alike, the source gives them in different places.
Experiments:
[1] = test system: cGAS/STING pathway in THP1 cells; assay: THP1 cell-based cGAS/STING pathway activity assay (IRF-3-linked luciferase reporter)
Outline: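 THP1 cells carrying an IRF-3-driven luciferase reporter were read across a range of compound concentrations, and IC50 values were derived from these concentration responses; the assay upper limit was 100 μM.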

[2] = target: Human cGAS amino acids 155-522 (Homo sapiens (Human), UniProt Q8N884); assay: cGAS biochemical activity assay (ATP remaining, Kinase-Glo Max luminescence); settings: human cGAS 155-522, ATP remaining (Kinase-Glo Max); read-out: cGAS IC50
Chain of Human cGAS amino acids 155-522 (Q8N884 157-522): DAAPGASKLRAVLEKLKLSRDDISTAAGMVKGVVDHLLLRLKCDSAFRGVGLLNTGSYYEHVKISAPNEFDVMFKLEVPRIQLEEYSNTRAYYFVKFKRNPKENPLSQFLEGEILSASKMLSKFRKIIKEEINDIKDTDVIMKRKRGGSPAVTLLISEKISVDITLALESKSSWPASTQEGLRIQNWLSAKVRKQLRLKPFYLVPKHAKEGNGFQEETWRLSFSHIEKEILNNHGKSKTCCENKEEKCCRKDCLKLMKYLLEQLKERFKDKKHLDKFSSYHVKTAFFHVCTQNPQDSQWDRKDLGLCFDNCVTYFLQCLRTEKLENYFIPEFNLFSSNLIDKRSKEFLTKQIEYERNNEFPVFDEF

| SMILES | IC50 ([1]; Homo sapiens, THP-1) [µM] | IC50 [2] [µM] | IC50 ([1]; read-out: THP-1 IC50) [µM] |
| --- | --- | --- | --- |
| Cc1[nH]c2c(-c3ccccc3)c(C(F)(F)F)nn2c(=O)c1-c1nc(CO)c(C(C)C)o1 [Compound C1143, 6-(4-(hydroxymethyl)-5-isopropyloxazol-2-yl)-5-methyl-3-phenyl-2-(trifluoromethyl)pyrazolo[1,5-a]pyrimidin-7(4H)-one] | > 100 | < 20 | – |
| COc1cnccc1NC(=O)c1c(C)[nH]c2c(-c3ccccc3)c(C(F)(F)F)nn2c1=O [Compound A1099, N-(3-methoxypyridin-4-yl)-5-methyl-7-oxo-3-phenyl-2-(trifluoromethyl)-4,7-dihydropyrazolo[1,5-a]pyrimidine-6-carboxamide] | > 100 | 20 to 250 | – |
| COc1ccc(NC(=O)c2c(C)[nH]c3c(-c4ccccc4)c(C(F)(F)F)nn3c2=O)nn1 [Compound A1110, N-(6-methoxypyridazin-3-yl)-5-methyl-7-oxo-3-phenyl-2-(trifluoromethyl)-4,7-dihydropyrazolo[1,5-a]pyrimidine-6-carboxamide] | > 100 | < 20 | – |
| COc1cccc2oc(-c3c(COC4COC4)[nH]c4c(-c5ccccc5)c(C(F)(F)F)nn4c3=O)nc12 [Compound C1152, 6-(4-methoxybenzo[d]oxazol-2-yl)-5-((oxetan-3-yloxy)methyl)-3-phenyl-2-(trifluoromethyl)pyrazolo[1,5-a]pyrimidin-7(4H)-one] | 20 to 100 | < 20 | – |
| COC1CCCc2oc(-c3c(C)[nH]c4c(-c5ccccc5)c(C(F)(F)F)nn4c3=O)nc21 (stereo not shown) [Compound C1048, 6-(4-methoxy-4,5,6,7-tetrahydrobenzo[d]oxazol-2-yl)-5-methyl-3-phenyl-2-(trifluoromethyl)pyrazolo[1,5-a]pyrimidin-7(4H)-one] | 20 to 100 | < 20 | – |
| COc1cccc2nc(-c3c(C)[nH]c4c(-c5ccccc5)c(C(F)(F)F)nn4c3=O)n(C)c12 [Compound C1065, 6-(7-methoxy-1-methyl-1H-benzo[d]imidazol-2-yl)-5-methyl-3-phenyl-2-(trifluoromethyl)pyrazolo[1,5-a]pyrimidin-7(4H)-one] | > 100 | 20 to 250 | – |
| COc1cccc2oc(-c3c(CS(C)(=O)=O)[nH]c4c(-c5ccccc5)c(C(F)(F)F)nn4c3=O)nc12 [Compound C1138, 6-(4-methoxybenzo[d]oxazol-2-yl)-5-((methylsulfonyl)methyl)-3-phenyl-2-(trifluoromethyl)pyrazolo[1,5-a]pyrimidin-7(4H)-one] | > 100 | < 20 | – |

More lines, now with the values ahead:

| IC50 ([1]; Homo sapiens, THP-1) [µM] | IC50 [2] [µM] | IC50 ([1]; read-out: THP-1 IC50) [µM] | SMILES |
| --- | --- | --- | --- |
| < 20 | < 20 | – | Cc1[nH]c2c(-c3ccccc3)c(C(F)(F)F)nn2c(=O)c1-c1nnc(C2(C(F)(F)F)CC2)o1 [Compound D1038, 5-methyl-3-phenyl-2-(trifluoromethyl)-6-(5-(1-(trifluoromethyl)cyclopropyl)-1,3,4-oxadiazol-2-yl)pyrazolo[1,5-a]pyrimidin-7(4H)-one] |
| > 100 | < 20 | – | Cc1[nH]c2c(-c3ccccc3)c(C(F)(F)F)nn2c(=O)c1-c1nnc([C@@H]2CCCOC2)o1 [Compound D1026, (R)-5-methyl-3-phenyl-6-(5-(tetrahydro-2H-pyran-3-yl)-1,3,4-oxadiazol-2-yl)-2-(trifluoromethyl)pyrazolo[1,5-a]pyrimidin-7(4H)-one] |
| < 20 | < 20 | – | COc1cccc2oc(-c3c(C(=O)NCCO)[nH]c4c(-c5ccccc5)c(C(F)(F)F)nn4c3=O)nc12 [Compound C1178, N-(2-hydroxyethyl)-6-(4-methoxybenzo[d]oxazol-2-yl)-7-oxo-3-phenyl-2-(trifluoromethyl)-4,7-dihydropyrazolo[1,5-a]pyrimidine-5-carboxamide] |
| – | < 20 | > 100 | CO[C@@H]1CCCC1c1nnc(-c2c(C)[nH]c3c(-c4ccccc4)c(C(F)(F)F)nn3c2=O)o1 (stereo partly shown) [D1049 Iso-2] |

Source: patent publication US10738056B2 (Aduro BioTech, Inc., priority 2017, dated 2020)
